Data taken from ChEMBL document CHEMBL3045841, “Novel diamide insecticides: sulfoximines, sulfonimidamides and other new sulfonimidoyl derivatives” (Bioorg Med Chem Lett, 2012).
In brackets after ≈: the same amount, converted by molar mass. Activity calls are given as the source filed them. No cut-off for these calls is given here.

What was measured:
Myzus persicae = experiment: Insecticidal activity against Myzus persicae (green peach aphid) assessed as mortality by greenhouse assay; assay type: functional
Plutella xylostella = experiment: Insecticidal activity against Plutella xylostella (diamondback moth) assessed as mortality by greenhouse assay; assay type: functional
Spodoptera littoralis [1] = experiment: Insecticidal activity against Spodoptera littoralis assessed as mortality by greenhouse assay; assay type: functional
Spodoptera frugiperda = experiment: Insecticidal activity against Spodoptera frugiperda (fall armyworm) in maize assessed as control of pests measured after 12 to 22 days of seed application; assay type: functional, organism-based
Agrotis ipsilon = experiment: Insecticidal activity against Agrotis ipsilon in maize assessed as control of pests measured after 12 to 22 days of seed application; assay type: functional, organism-based
Liriomyza trifolii = experiment: Insecticidal activity against Liriomyza trifolii in kidney beans assessed as control of pests measured after 12 to 22 days of seed application; assay type: functional, organism-based
Phyllotreta striolata = experiment: Insecticidal activity against Phyllotreta striolata in radish assessed as control of pests measured after 12 to 22 days of seed application; assay type: functional, organism-based
Spodoptera littoralis [2] = experiment: Insecticidal activity against Spodoptera littoralis in maize assessed as control of pests measured after 12 to 22 days of seed application; assay type: functional, organism-based
[3] = Lipophilicity, log P of the compound; assay type: physicochemical; settings: octanol/water
[4] = Aqueous solubility of the compound at pH 7; assay type: physicochemical; settings: buffer

Structure (SMILES)	EC80 (Myzus persicae)	EC80 (Plutella xylostella)	EC80 (Spodoptera littoralis [1])	Activity (Spodoptera frugiperda)	Activity (Agrotis ipsilon)	Activity (Liriomyza trifolii)	Activity (Phyllotreta striolata)	Activity (Spodoptera littoralis [2])	logP [3]	solubility [4]
Cc1cc(Cl)cc(C(=O)NC(C)(C)CS(C)(=N)=O)c1NC(=O)c1cc(OCC(F)(F)F)nn1-c1ncccc1Cl (centres undefined)	12.5 µg/mL (≈ 20.1 µM)	0.2 µg/mL (≈ 0.322 µM)	0.8 µg/mL (≈ 1.29 µM)	Active	Active	Active	Active	Active	2.4	295 ppm
CNS(=N)(=O)CC(C)NC(=O)c1cc(C#N)cc(C)c1NC(=O)c1cc(Br)nn1-c1ncccc1Cl (centres undefined)	200 µg/mL (≈ 337 µM)	12.5 µg/mL (≈ 21 µM)	50 µg/mL (≈ 84.2 µM)	–	–	–	–	–	1.1	96 ppm
CN=S(=O)(CC(C)NC(=O)c1cc(C#N)cc(C)c1NC(=O)c1cc(Br)nn1-c1ncccc1Cl)NN(C)C (centres undefined)	12.5 µg/mL (≈ 19.6 µM)	12.5 µg/mL (≈ 19.6 µM)	50 µg/mL (≈ 78.5 µM)	–	–	–	–	–	2.1	48 ppm
Cc1cc(C#N)cc(C(=O)NC(C)(C)CS(C)(=N)=O)c1NC(=O)c1cc(Br)nn1-c1ncccc1Cl (centres undefined)	12.5 µg/mL (≈ 21.1 µM)	0.8 µg/mL (≈ 1.35 µM)	0.8 µg/mL (≈ 1.35 µM)	–	–	–	–	–	1.1	42 ppm
Cc1cc(Cl)cc(C(=O)NC(C)(C)CS(C)(=N)=O)c1NC(=O)c1cc(C(F)(F)F)nn1-c1ncccc1Cl (centres undefined)	50 µg/mL (≈ 84.5 µM)	0.8 µg/mL (≈ 1.35 µM)	0.8 µg/mL (≈ 1.35 µM)	Active	Active	Active	Active	Active	2.4	196 ppm
CNC(=O)c1cc(Cl)cc(C)c1NC(=O)c1cc(Br)nn1-c1ncccc1Cl [CHLORANTRANILIPROLE]	50 µg/mL (≈ 103 µM)	0.8 µg/mL (≈ 1.66 µM)	0.8 µg/mL (≈ 1.66 µM)	–	–	–	–	–	2.8	1 ppm
Cc1cc(C#N)cc(C(=O)NC(C)(C)CS(C)(=O)=NC#N)c1NC(=O)c1cc(Br)nn1-c1ncccc1Cl (centres undefined)	200 µg/mL (≈ 324 µM)	0.8 µg/mL (≈ 1.29 µM)	50 µg/mL (≈ 80.9 µM)	–	–	–	–	–	1.7	59 ppm
Cc1cc(Cl)cc(C(=O)NC(C)(C)CS(C)(=O)=NC#N)c1NC(=O)c1cc(C(F)(F)F)nn1-c1ncccc1Cl (centres undefined)	200 µg/mL (≈ 324 µM)	0.8 µg/mL (≈ 1.3 µM)	0.8 µg/mL (≈ 1.3 µM)	–	–	–	–	–	2.9	14 ppm
Cc1cc(C(F)(C(F)(F)F)C(F)(F)F)ccc1NC(=O)c1cccc(I)c1C(=O)NC(C)(C)CS(C)(=O)=O [FLUBENDIAMIDE]	> 200 µg/mL	3.1 µg/mL (≈ 4.54 µM)	3.1 µg/mL (≈ 4.54 µM)	–	–	–	–	–	–	0.3 ppm
Cc1cc(C#N)cc(C(=O)NC(C)(C)CS(C)(=N)=O)c1NC(=O)c1cc(OCC(F)(F)F)nn1-c1ncccc1Cl (centres undefined)	3.1 µg/mL (≈ 5.07 µM)	0.2 µg/mL (≈ 0.327 µM)	0.8 µg/mL (≈ 1.31 µM)	–	–	–	–	–	1.6	361 ppm
Cc1cc(C#N)cc(C(=O)NC(C)(C)CS(C)(=O)=N[N+](=O)[O-])c1NC(=O)c1cc(Br)nn1-c1ncccc1Cl (centres undefined)	200 µg/mL (≈ 314 µM)	0.8 µg/mL (≈ 1.25 µM)	12.5 µg/mL (≈ 19.6 µM)	–	–	–	–	–	1.9	29 ppm
CNS(=N)(=O)CC(C)NC(=O)c1cc(Cl)cc(C)c1NC(=O)c1cc(Br)nn1-c1ncccc1Cl (centres undefined)	200 µg/mL (≈ 331 µM)	3.1 µg/mL (≈ 5.14 µM)	12.5 µg/mL (≈ 20.7 µM)	–	–	–	–	–	2	95 ppm
CN=S(=O)(CC(C)NC(=O)c1cc(C#N)cc(C)c1NC(=O)c1cc(Br)nn1-c1ncccc1Cl)NOC (centres undefined)	> 200 µg/mL	3.1 µg/mL (≈ 4.97 µM)	50 µg/mL (≈ 80.1 µM)	–	–	–	–	–	1.8	17 ppm
CNC(=O)c1cc(C#N)cc(C)c1NC(=O)c1cc(Br)nn1-c1ncccc1Cl [CYANTRANILIPROLE]	12.5 µg/mL (≈ 26.4 µM)	0.8 µg/mL (≈ 1.69 µM)	3.1 µg/mL (≈ 6.54 µM)	–	–	–	–	–	1.9	14 ppm
